In patent publication US10501464B2, “7-oxo-6-(sulfooxy)-1,6-diazabicyclo[3.2.1]octane-2-carboxamide containing compounds and their use in treating bacterial infections” (WOCKHARDT LIMITED, priority 2015, dated 2019) one finds MIC data, which are given here for five molecules.

Test in all cases: Antibacterial activity, MIC by agar dilution (CLSI)
Common to all, as to assay type: cell-based
(In general: In agar dilution, organisms are placed on agar that contains the substance at set levels.)

For one assay, the system named is E. coli 13351. The conditions noted are these: compound tested alone. The gist of the method:
(§1)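 Mueller Hinton agar with doubling dilutions of compound was spot-inoculated at about 10^4 CFU/spot from diluted overnight cultures using a multipoint inoculator. Plates were incubated at 35° C. for 18 hour (also described as 35±2° C., 16-20 hours, ambient air, or 37° C., 18 hours) and scored for growth or no growth.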

The next assay relates to E. coli 13352. The conditions noted are these: compound tested alone. The gist of the method:
as §1

In a further assay the test system is E. coli 13353. Particulars: compound tested alone. An outline of the steps: as §1
In the next assay the test system is E. coli 7 MP. The conditions noted are these: compound tested alone. The gist of the method:
as §1

The test system of the next assay is E. coli H 483. An outline of the steps: as §1
A further assay concerns E. coli M 138. Particulars: compound tested alone. The gist of the method: as §1
Another assay concerns E. coli M 36. The conditions noted are these: compound tested alone. The gist of the method:
as §1

For a further assay, the system named is E. coli M 49. The conditions noted are these: compound tested alone. An outline of the steps: as §1
In the next assay the test system is E. coli M 50. Particulars: compound tested alone. An outline of the steps: as §1
For assay [1], the system named is K. pneumoniae ATCC 700603. An outline of the steps:
as §1

A further assay has as its system K. pneumoniae H 521. The conditions noted are these: compound tested alone. An outline of the steps: as §1
For another assay, the system named is K. pneumoniae H 522. Particulars: compound tested alone. An outline of the steps: as §1
The subject of the next assay is K. pneumoniae H 523. The conditions noted are these: compound tested alone. The gist of the method: as §1
The subject of another assay is K. pneumoniae H 525. Particulars: compound tested alone. An outline of the steps:
as §1

The next assay deals with P. mirabilis S 137B. Particulars: compound tested alone. The gist of the method: as §1
Where [2] appears, read: Escherichia coli, 13351, E. coli 13351, read-out: MIC.
Where [3] appears, read: Escherichia coli, 13352, E. coli 13352, read-out: MIC.
The mark [4] stands for this setting: Escherichia coli, 13353, E. coli 13353, read-out: MIC.
Where [5] appears, read: Escherichia coli, 7MP, read-out: MIC.
The mark [6] stands for this setting: Escherichia coli, H483, compound tested alone, read-out: MIC.
[7] abbreviates: Escherichia coli, M138, E. coli M 138, read-out: MIC.
Setting [8] is: Escherichia coli, M36, E. coli M 36, read-out: MIC.
Setting [9] is: Escherichia coli, M49, E. coli M 49, read-out: MIC.
Setting [10] is: Escherichia coli, M50, E. coli M 50, read-out: MIC.
[11] abbreviates: Klebsiella pneumoniae, ATCC700603, compound tested alone, read-out: MIC.
The mark [12] stands for this setting: Klebsiella pneumoniae, H521, K. pneumoniae H 521, read-out: MIC.
The mark [13] stands for this setting: Klebsiella pneumoniae, H522, K. pneumoniae H 522, read-out: MIC.
Setting [14] is: Klebsiella pneumoniae, H523, K. pneumoniae H 523, read-out: MIC.
[15] abbreviates: Klebsiella pneumoniae, H525, K. pneumoniae H 525, read-out: MIC.
The mark [16] stands for this setting: Proteus mirabilis, S137B, read-out: MIC.

Like-named read-outs stand apart in the source and are kept apart here.

Take `CC(C)(O/N=C(\C(=O)N[C@@H]1C(=O)N2C(C(=O)[O-])=C(C[n+]3ccccc3)CS[C@H]12)c1csc(N)n1)C(=O)O` [Ceftazidime, reference compound]: the MIC with E. coli 13351 (E. coli 13351) was 16 µg/mL; in the assay with E. coli 13352 (E. coli 13352) it was more than 32 µg/mL; in the assay on E. coli 13353 (E. coli 13353), more than 32 µg/mL; with E. coli 7 MP it was more than 32 µg/mL; in the assay on E. coli H 483 (compound tested alone) it was more than 32 µg/mL; with E. coli M 138 (E. coli M 138), more than 32 µg/mL. In addition, the MIC with E. coli M 36 (E. coli M 36) was more than 32 µg/mL; in the assay with E. coli M 49 (E. coli M 49), more than 32 µg/mL; in the assay on E. coli M 50 (E. coli M 50) it was more than 32 µg/mL; in assay [1] (compound tested alone) it was 16 µg/mL; in the assay on K. pneumoniae H 521 (K. pneumoniae H 521), more than 32 µg/mL; in the assay on K. pneumoniae H 522 (K. pneumoniae H 522), more than 32 µg/mL. Further, the MIC in the assay with K. pneumoniae H 523 (K. pneumoniae H 523), with K. pneumoniae H 525 (K. pneumoniae H 525) and in the assay on P. mirabilis S 137B was more than 32 µg/mL in each case.

`O=C(NOC[C@@H]1C[C@H](n2cnnn2)CN1)[C@@H]1CC[C@@H]2CN1C(=O)N2OS(=O)(=O)O` [Example 4]: the MIC is 4 µg/mL with E. coli 13351 (setting [2]); 2 µg/mL with E. coli 13352 (setting [3]); 2 µg/mL in the assay with E. coli 13353 (setting [4]); 4 µg/mL with E. coli 7 MP (setting [5]); more than 32 µg/mL in the assay with E. coli H 483 (setting [6]); 2 µg/mL in the assay with E. coli M 138 (setting [7]). For the same molecule, the MIC in the assay on E. coli M 36 (setting [8]) was 2 µg/mL; in the assay with E. coli M 49 (setting [9]), 8 µg/mL; with E. coli M 50 (setting [10]), 2 µg/mL; in assay [1] (setting [11]), more than 32 µg/mL; with K. pneumoniae H 521 (setting [12]) it was 4 µg/mL; in the assay on K. pneumoniae H 522 (setting [13]), 4 µg/mL. Further, the MIC was 4 µg/mL in the assay with K. pneumoniae H 523 (setting [14]), 4 µg/mL in the assay with K. pneumoniae H 525 (setting [15]) and more than 32 µg/mL in the assay on P. mirabilis S 137B (setting [16]).

Turning to `O=C(NOC[C@@H]1C[C@H](n2ccnc2)CN1)[C@@H]1CC[C@@H]2CN1C(=O)N2OS(=O)(=O)O` [Example 10], the MIC in the assay with E. coli 13351 (setting [2]) was 2 µg/mL; in the assay on E. coli 13352 (setting [3]) it was 2 µg/mL; in the assay with E. coli 13353 (setting [4]) it was 1 µg/mL; with E. coli 7 MP (setting [5]), 4 µg/mL; with E. coli H 483 (setting [6]), more than 32 µg/mL; in the assay on E. coli M 138 (setting [7]), 1 µg/mL. In addition, the MIC is 1 µg/mL in the assay with E. coli M 36 (setting [8]); 4 µg/mL in the assay on E. coli M 49 (setting [9]); 1 µg/mL in the assay with E. coli M 50 (setting [10]); more than 32 µg/mL in [1] (setting [11]); 2 µg/mL with K. pneumoniae H 521 (setting [12]); 2 µg/mL in the assay on K. pneumoniae H 522 (setting [13]). For the same molecule, the minimum inhibitory concentration (MIC) in the assay with K. pneumoniae H 523 (setting [14]) was 2 µg/mL; with K. pneumoniae H 525 (setting [15]), 2 µg/mL; in the assay on P. mirabilis S 137B (setting [16]), more than 32 µg/mL.

`O=C(NOC[C@H]1C[C@H](n2ncnn2)CN1)[C@@H]1CC[C@@H]2CN1C(=O)N2OS(=O)(=O)O` [Example 11]: the MIC with E. coli 13351 (setting [2]) was 4 µg/mL; in the assay with E. coli 13352 (setting [3]) it was 2 µg/mL; with E. coli 13353 (setting [4]), 2 µg/mL; in the assay with E. coli 7 MP (setting [5]), 8 µg/mL; with E. coli H 483 (setting [6]) it was more than 32 µg/mL; in the assay on E. coli M 138 (setting [7]) it was 2 µg/mL. The MIC in the assay on E. coli M 36 (setting [8]) is 2 µg/mL; in the assay on E. coli M 49 (setting [9]), 16 µg/mL; in the assay on E. coli M 50 (setting [10]), 2 µg/mL; in [1] (setting [11]), more than 32 µg/mL; with K. pneumoniae H 521 (setting [12]), 4 µg/mL; in the assay with K. pneumoniae H 522 (setting [13]), 4 µg/mL. Moreover, the MIC is 4 µg/mL with K. pneumoniae H 523 (setting [14]), 2 µg/mL with K. pneumoniae H 525 (setting [15]) and more than 32 µg/mL in the assay with P. mirabilis S 137B (setting [16]).

As to `O=C(NOC[C@H]1C[C@H](n2cnnn2)CN1)[C@@H]1CC[C@@H]2CN1C(=O)N2OS(=O)(=O)O` [Example 12], the MIC was 4 µg/mL in the assay on E. coli 13351 (setting [2]); 2 µg/mL in the assay with E. coli 13352 (setting [3]); 2 µg/mL with E. coli 13353 (setting [4]); 8 µg/mL in the assay on E. coli 7 MP (setting [5]); more than 32 µg/mL in the assay on E. coli H 483 (setting [6]); 2 µg/mL in the assay on E. coli M 138 (setting [7]). Also, the MIC in the assay with E. coli M 36 (setting [8]) is 2 µg/mL; in the assay with E. coli M 49 (setting [9]), 16 µg/mL; with E. coli M 50 (setting [10]), 2 µg/mL; in assay [1] (setting [11]) it was more than 32 µg/mL; in the assay with K. pneumoniae H 521 (setting [12]) it was 4 µg/mL; in the assay on K. pneumoniae H 522 (setting [13]), 4 µg/mL. In addition, the MIC in the assay on K. pneumoniae H 523 (setting [14]) was 4 µg/mL; in the assay on K. pneumoniae H 525 (setting [15]), 4 µg/mL; in the assay on P. mirabilis S 137B (setting [16]), more than 32 µg/mL.

What is called MIC is the smallest concentration in the dilution series that meets the test's criterion for growth inhibition.
